{
  "source": "patent US10123541B2",
  "about": "“Biocidal mixture, use of biocidal mixture and compositions comprising a biocidal mixture” (ISP Investments LLC, priority 2014, dated 2018)",
  "assay_in_all_cases": "Minimum Inhibitory Concentration (MIC) growth test",
  "format_in_all_cases": "cell-based",
  "key": {"[1]": {"test_system": "Candida albicans, ATCC 10231", "set-up": "key: − = no growth; + = low growth; ++ = moderate growth; +++ = high growth", "source_text": "(§1) This example intends to analyze the microbial activity of the mixture of invention compared to the individual activity of the mixture components using the methodology that determines the minimal concentration of the substance or mixture that inhibits microorganism growth.\n(§2) The tested micro-organisms were: • Staphylococcus aureus, ATCC 6538 • Escherichia coli, ATCC 8739 • Pseudomonas aeruginosa, ATCC 9027 • Burkholderia cepacia, ATCC 25416 • Candida albicans, ATCC 10231 • Aspergillus brasiliensis, ATCC 16404\n(§3) The samples of the table above were initially prepared with an initial concentration of 3% based on their solubility in water, and then diluted to achieve the following concentrations: 1.5%; 0.75%; 0.375%; 0.1875%; 0.09375%.\n(§4) The dilutions were obtained as follows: (a) to a first test tube containing 5 mL of tripticase soy broth (TSB), 5 mL of 3% concentration solution were added and the mixture was vortexed. 5 mL of the contents of this tube were removed and added to a second tube containing 5 mL of TSB and the mixture was vortexed. This procedure was repeated until obtaining the various concentrations.\n(§5) The tested organisms were prepared as typical organism inoculants, under the form of a saline suspension. The concentration of bacterial inoculants was approximately 1×10^6 cfu/mL (“colony-forming unit per milliliter”). The concentration of fungal inoculants was approximately 1×10^5 spores/mL. In the sequence, each sample solution was inoculated with 0.1 mL of organism inoculum and vortexed. The tubes containing bacteria were incubated for 24 hours at 35° C. and the tubes containing fungi were incubated for 48 hours at 25° C.\n(§6) An aliquot of 0.1 mL from these tubes was transferred to a tube having 9 mL of Letheen broth containing neutralizing agents. These Letheen tubes were again incubated for 48 hours with Letheen under incubation temperature for bacteria or fungi. Then, a swab previously wet with TSB was put in contact with sample solutions with concentrations 1.5%; 0.75%; 0.375%; 0.1875% and 0.09375%, and then they were swiped over the surface of culture plates (for bacteria: Letheen agar, AOAC—Association of Official Analytical Chemists; for fungi: Mycophil® agar of low pH with Tween® 20 polysorbate surfactant)."}, "[2]": {"test_system": "Aspergillus brasiliensis, ATCC 16404", "set-up": "key: − = no growth; + = low growth; ++ = moderate growth; +++ = high growth", "source_text": "as §1, §2, §3, §4, §5, §6"}, "[3]": {"test_system": "Pseudomonas aeruginosa, ATCC 9027", "set-up": "key: − = no growth; + = low growth; ++ = moderate growth; +++ = high growth", "source_text": "as §1, §2, §3, §4, §5, §6"}, "[4]": {"test_system": "Escherichia coli, ATCC 8739", "set-up": "key to growth of organisms: − = no growth; + = low growth; ++ = moderate growth; +++ = high growth", "source_text": "as §1, §2, §3, §4, §5, §6"}, "[5]": {"test_system": "Burkholderia cepacia, ATCC 25416", "set-up": "key to growth of organisms: − = no growth; + = low growth; ++ = moderate growth; +++ = high growth", "source_text": "as §1, §2, §3, §4, §5, §6"}, "[6]": {"test_system": "Staphylococcus aureus, ATCC 6538", "set-up": "key to growth of organisms: − = no growth; + = low growth; ++ = moderate growth; +++ = high growth", "source_text": "as §1, §2, §3, §4, §5, §6"}},
  "data": [
    {"smiles": "OCCCc1ccccc1", "note": "[Sample 1, Phenylpropanol]", "values": [
      {"measurement": "growth of organisms", "setting": "[1]; sample concentration 0.09375%", "result": "+"},
      {"measurement": "growth of organisms", "setting": "[1]; sample concentration 0.1875%", "result": "+"},
      {"measurement": "growth of organisms", "setting": "[1]; sample concentration 0.375%", "result": "+"},
      {"measurement": "growth of organisms", "setting": "[1]; sample concentration 0.75%", "result": "−"},
      {"measurement": "growth of organisms", "setting": "[1]; sample concentration 1.5%", "result": "−"},
      {"measurement": "growth of organisms", "setting": "[2]; sample concentration 0.09375%", "result": "+"},
      {"measurement": "growth of organisms", "setting": "[2]; sample concentration 0.1875%", "result": "+"},
      {"measurement": "growth of organisms", "setting": "[2]; sample concentration 0.375%", "result": "+"},
      {"measurement": "growth of organisms", "setting": "[2]; sample concentration 0.75%", "result": "−"},
      {"measurement": "growth of organisms", "setting": "[2]; sample concentration 1.5%", "result": "−"},
      {"measurement": "growth of organisms", "setting": "[3]; sample concentration 0.09375%", "result": "+"},
      {"measurement": "growth of organisms", "setting": "[3]; sample concentration 0.1875%", "result": "+"},
      {"measurement": "growth of organisms", "setting": "[3]; sample concentration 0.375%", "result": "+"},
      {"measurement": "growth of organisms", "setting": "[3]; sample concentration 0.75%", "result": "+"},
      {"measurement": "growth of organisms", "setting": "[3]; sample concentration 1.5%", "result": "−"},
      {"measurement": "inhibition of growth (in words)", "setting": "[4]; concentration of 1.5%", "result": "not able to inhibit the growth"},
      {"measurement": "growth of organisms", "setting": "[4]; sample concentration 0.09375%", "result": "+"},
      {"measurement": "growth of organisms", "setting": "[4]; sample concentration 0.1875%", "result": "+"},
      {"measurement": "growth of organisms", "setting": "[4]; sample concentration 0.375%", "result": "+"},
      {"measurement": "growth of organisms", "setting": "[4]; sample concentration 0.75%", "result": "+"},
      {"measurement": "growth of organisms", "setting": "[4]; sample concentration 1.5%", "result": "+"},
      {"measurement": "inhibition of growth (in words)", "setting": "[5]; concentration of 1.5%", "result": "not able to inhibit the growth"},
      {"measurement": "growth of organisms", "setting": "[5]; sample concentration 0.09375%", "result": "+"},
      {"measurement": "growth of organisms", "setting": "[5]; sample concentration 0.1875%", "result": "+"},
      {"measurement": "growth of organisms", "setting": "[5]; sample concentration 0.375%", "result": "+"},
      {"measurement": "growth of organisms", "setting": "[5]; sample concentration 0.75%", "result": "+"},
      {"measurement": "growth of organisms", "setting": "[5]; sample concentration 1.5%", "result": "+"},
      {"measurement": "inhibition of growth (in words)", "setting": "[6]; concentration of 1.5%", "result": "not able to inhibit the growth"},
      {"measurement": "growth of organisms", "setting": "[6]; sample concentration 0.09375%", "result": "+"},
      {"measurement": "growth of organisms", "setting": "[6]; sample concentration 0.1875%", "result": "+"},
      {"measurement": "growth of organisms", "setting": "[6]; sample concentration 0.375%", "result": "+"},
      {"measurement": "growth of organisms", "setting": "[6]; sample concentration 0.75%", "result": "+"},
      {"measurement": "growth of organisms", "setting": "[6]; sample concentration 1.5%", "result": "+"}
    ]}
  ]
}
